US20220168430A1, “THERAPEUTIC METHODS FOR TREATING HEPATITIS B” (priority 2019, published 2022)
pEC50: −log10 of the molar value. Several values for one entry are separate records, joined by “and”; a condition that tells them apart may be missing. Equal entries are not always repeated. Where two headings read alike, the source gives them in different places.

What was measured:
HBsAg = HBsAg in culture supernatants of HBV-infected PHH by ELISA (Examples 15-17); conditions: for AVERAGE % INHIBITION: HBsAg
Method: All the test articles were further diluted 100 times with the culture medium. The final concentration of DMSO in the culture medium was 2%.
HBsAg in the culture supernatants harvested on days 8 was measured using the HBsAg/ELISA kit (Autobio) according to the manual. The samples were diluted 4-fold with PBS to get the signal in the range of the standard curve. Percent inhibition of HBsAg was calculated with the following formula:
% Inh. HBsAg=[1−HBsAg quantity of sample/HBV quantity of DMSO control]×100

HBV DNA [1] = experiment: HBV DNA in culture supernatants of HBV-infected PHH by qPCR (Examples 15-17); assay type: cell-based, HBV genotype D; primary human hepatocytes; conditions: Hepatitis B virus, determined in an earlier separate experiment
HBV rcDNA = experiment: Dual agent combination in HepDE19 cells, rcDNA by Quantigene 2.0 bDNA assay (Examples 5-8); assay type: cell-based, HBV; HepDE19 (HepG2 human hepatocarcinoma derived); conditions: for inhibition at 0.01 µM / inhibition at 0.02 µM / inhibition at 0.039 µM / inhibition at 0.156 µM / inhibition at 1.25 µM: HepDE19, Expt 2; for inhibition at 0.01 µM: TDF 0.010 μM alone; for inhibition at 0.02 µM: TDF 0.020 μM alone; for inhibition at 0.039 µM: TDF 0.039 μM alone; for inhibition at 0.156 µM: TDF 0.156 μM alone; for inhibition at 1.25 µM: TDF 1.250 μM alone
Method: In vitro dual agent combination studies were conducted using the method of Prichard and Shipman 1990 (Prichard M N, Shipman C, Jr. 1990. Antiviral Res 14:181-205). The HepDE19 cell culture system is a HepG2 (human hepatocarcinoma) derived cell line that supports HBV DNA replication and cccDNA formation under control the control of a CMV Tet-off promoter system (Guo et al. 2007. J Virol 81:12472-84). HepDE19 (50,000 cells/well) were plated in 96 well collagen-coated tissue-culture treated microtiter plates in DMEM/F12 medium supplemented with 10% fetal bovine serum+1% penicillin-streptomycin with tetracycline (1 μg/mL) and incubated in a humidified incubator at 37° C. and 5% CO2 overnight. Next day, the cells were switched to fresh medium without tetracycline and incubated for 4 hrs at 37° C. and 5% CO2. The cells were switched to fresh medium and treated with inhibitor A and inhibitor B, at concentration range spanning their respective EC50 values. […] The two inhibitors were tested both singly as well as in combinations in a checkerboard fashion such that each concentration of inhibitor A was combined with each concentration of inhibitor B to determine their combination effects on inhibition of rcDNA production. There were four replicates of each concentration combination in each experiment. The plates were incubated for 7 days in a humidified incubator at 37° C. and 5% CO2. The level of rcDNA present in the wells was measured using a Quantigene 2.0 bDNA assay kit (Affymetrix, Santa Clara, Calif.) with HBV specific custom probe set (genotype D ayw) and according to the manufacturer's instructions and read using a luminescence plate reader and the relative luminescence units (RLU) data generated from each well was calculated as % inhibition of the untreated control wells and analyzed using the MacSynergy II program to determine whether the combinations were synergistic, additive or antagonistic using the interpretive guidelines established by Prichard and Shipman (Prichard M N, Shipman C, Jr. 1990. […] Each experiment was repeated at least three times and the averages and standard deviations of individual determinations was calculated to derive the conclusion. Concurrently, in each experiment, the effect of inhibitor combinations on cell viability was assessed using replicate plates in triplicates that were used to determine the ATP content as a measure of cell viability using the Cell-Titer Glo reagent (Promega, Madison, Wis.) as per the manufacturer's instructions.

HBV DNA [2] = experiment: HBV DNA in culture supernatants of HBV-infected PHH by qPCR (Examples 15-17); assay type: cell-based, HBV genotype D; primary human hepatocytes; conditions: HBV DNA
Method: The day PHH seeding date was defined as day 0.
The PHH were infected with 400 HBV GE/cell of D type HBV on day 1.
The test articles were further diluted with the culture medium to the final test concentrations.
All the test articles were further diluted 100 times with the culture medium. The final concentration of DMSO in the culture medium was […].
Four two-way combinations were performed on a 5×5 matrix, in triplicate plates. Transfection reagent was present in all wells.
DNA in the culture supernatants harvested on days 8 was isolated with QIAamp 96 DNA Blood Kit (Qiagen-51162). For each sample, 100 μl of each culture supernatant was used to extract DNA. The DNA was eluted with 180 μl of AE. HBV DNA in the culture supernatants was quantified by quatitative PCR using well-established and commonly used procedures. Percent inhibition of HBV DNA was calculated with the formula below:
% Inh. HBV DNA=[1−value of sample/AVG. value of Medium control]×100.
Results of double combination studies were analyzed using MacSynergy II software (Prichard and Shipman, 1992).

[3] = Hepatitis B virus, read-out: ADDITIVE INHIBITION
[4] = Hepatitis B virus, read-out: AVERAGE % INHIBITION

CC(C)OC(=O)OCOP(=O)(CO[C@H](C)Cn1cnc2c(N)ncnc21)OCOC(=O)OC(C)C.O=C(O)/C=C/C(=O)O [TDF, tenofovir disoproxil fumarate, reference compound] was tested, and the “AVERAGE % INHIBITION” value (HBsAg; TDF 0.12 nM alone) was −1.47% and −10.84%, the “AVERAGE % INHIBITION” value (HBsAg; TDF 0.37 nM alone) was −1.3% and −9.3% and the pEC50 (HBsAg; Hepatitis B virus) was < 8.00. For the same compound, the pEC50 (HBV DNA [1]) was 9.38, the “SYNERGY PLOT (99%) Bonferroni Adj. 55%” value (HBV rcDNA) was 0 and the “ADDITIVE INHIBITION” value (HBV rcDNA; Expt 1, TDF 0.009 μM alone) was −0.25. The “ADDITIVE INHIBITION” value (HBV rcDNA; Expt 1, TDF 0.083 μM alone) was 45.88, the “ADDITIVE INHIBITION” value (HBV rcDNA; Expt 1, TDF 0.750 μM alone) was 98 and the “ADDITIVE INHIBITION” value (HBV rcDNA; Expt 3, TDF 0.009 μM alone) was 32.54. The “ADDITIVE INHIBITION” value (HBV rcDNA; Expt 3, TDF 0.083 μM alone) was 76.04, the “ADDITIVE INHIBITION” value (HBV rcDNA; Expt 3, TDF 0.750 μM alone) was 96.97 and the inhibition at 0.009 µM (HBV rcDNA; Hepatitis B virus, HepDE19, Expt 1, TDF 0.009 μM alone) was -0.25%. For the same compound, the inhibition at 0.083 µM (HBV rcDNA; Hepatitis B virus, HepDE19, Expt 1, TDF 0.083 μM alone) was 45.9%, the inhibition at 0.75 µM (HBV rcDNA; Hepatitis B virus, HepDE19, Expt 1, TDF 0.750 μM alone) was 98% and the inhibition at 0.01 µM (HBV rcDNA; [3]) was 4.67%. The inhibition at 0.01 µM (HBV rcDNA; [4]) was 4.67%, the inhibition at 0.02 µM (HBV rcDNA; [3]) was -12.9% and the inhibition at 0.02 µM (HBV rcDNA; [4]) was -12.9%. It also gave an inhibition at 0.039 µM (HBV rcDNA; [3]) of 35.9%, an inhibition at 0.039 µM (HBV rcDNA; [4]) of 35.9% and an inhibition at 0.156 µM (HBV rcDNA; [3]) of 77.1%. It also gave an inhibition at 0.156 µM (HBV rcDNA; [4]) of 77.1%, an inhibition at 1.25 µM (HBV rcDNA; [3]) of 98.4% and an inhibition at 1.25 µM (HBV rcDNA; [4]) of 98.4%. For the same compound, the inhibition at 0.009 µM (HBV rcDNA; Hepatitis B virus, HepDE19, Expt 3, TDF 0.009 μM alone) was 32.5%, the inhibition at 0.083 µM (HBV rcDNA; Hepatitis B virus, HepDE19, Expt 3, TDF 0.083 μM alone) was 76% and the inhibition at 0.75 µM (HBV rcDNA; Hepatitis B virus, HepDE19, Expt 3, TDF 0.750 μM alone) was 97%. For the same compound, the pEC50 (HBV rcDNA; Hepatitis B virus, HepDE19, combination studies with Cmpd 1, read-out: Avg. Inhibitor B EC50) was 7.19, the “AVERAGE % INHIBITION” value (HBV DNA [2]; TDF 0.12 nM alone) was 22.22% and the “AVERAGE % INHIBITION” value (HBV DNA [2]; TDF 10.0 nM alone) was 92.76%. For the same compound, the inhibition at 0.00012 µM (HBV DNA [2]; Hepatitis B virus, TDF 0.12 nM alone) was 36.1%, the inhibition at 0.00037 µM (HBV DNA [2]; Hepatitis B virus, TDF 0.37 nM alone) was 44.6% and the inhibition at 0.01 µM (HBV DNA [2]; Hepatitis B virus, TDF 10.0 nM alone) was 92.5%.
